Data from US8192962B2, “Processes for detecting toxic substances” (Daikin Industries, Ltd., priority 2001, dated 2012).

System: Transport facilitation protein genes
Experiment: DNA chip mRNA expression in yeast, transport facilitation protein genes (Table 5)
Format: cell-based, Saccharomyces cerevisiae S288C
How it was run: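 Value is the scanned fluorescence intensity ratio of exposed versus chemical-free cells. Log-phase S288C yeast in YPD at 25° C. received one toxic substance for two hours, dosed to slow growth without killing; Cy3/Cy5-labeled cDNA from oligo-dT-purified mRNA was hybridized to a whole-genome chip at 65° C.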

## [Cl][Hg][Cl] [(3), HgCl2]
Yeast gene YBL030C
  The level of expressed mRNA in the presence of chemical substance/The level of expressed mRNA in the absence of chemical substance: 4.5
Yeast gene YBL099W
  The level of expressed mRNA in the presence of chemical substance/The level of expressed mRNA in the absence of chemical substance: 3.1
Yeast gene YBR052C
  The level of expressed mRNA in the presence of chemical substance/The level of expressed mRNA in the absence of chemical substance: 1.5
Yeast gene YBR068C
  The level of expressed mRNA in the presence of chemical substance/The level of expressed mRNA in the absence of chemical substance: 1.9
Yeast gene YBR127C
  The level of expressed mRNA in the presence of chemical substance/The level of expressed mRNA in the absence of chemical substance: 2.2
Yeast gene YBR132C
  The level of expressed mRNA in the presence of chemical substance/The level of expressed mRNA in the absence of chemical substance: 2.4
Yeast gene YBR207W
  The level of expressed mRNA in the presence of chemical substance/The level of expressed mRNA in the absence of chemical substance: 0.8
Yeast gene YBR293W
  The level of expressed mRNA in the presence of chemical substance/The level of expressed mRNA in the absence of chemical substance: 1.0
Yeast gene YBR294W
  The level of expressed mRNA in the presence of chemical substance/The level of expressed mRNA in the absence of chemical substance: 0.9
Yeast gene YBR295W
  The level of expressed mRNA in the presence of chemical substance/The level of expressed mRNA in the absence of chemical substance: 3.3
Yeast gene YBR298C
  The level of expressed mRNA in the presence of chemical substance/The level of expressed mRNA in the absence of chemical substance: 1.6
Yeast gene YCL025C
  The level of expressed mRNA in the presence of chemical substance/The level of expressed mRNA in the absence of chemical substance: 2.5
Yeast gene YCL038C
  The level of expressed mRNA in the presence of chemical substance/The level of expressed mRNA in the absence of chemical substance: 1.4
Yeast gene YCR024C-A
  The level of expressed mRNA in the presence of chemical substance/The level of expressed mRNA in the absence of chemical substance: 3.2
Yeast gene YCR037C
  The level of expressed mRNA in the presence of chemical substance/The level of expressed mRNA in the absence of chemical substance: 0.8
Yeast gene YCR098C
  The level of expressed mRNA in the presence of chemical substance/The level of expressed mRNA in the absence of chemical substance: 1.7
Yeast gene YDL128W
  The level of expressed mRNA in the presence of chemical substance/The level of expressed mRNA in the absence of chemical substance: 2.1
Yeast gene YDL198C
  The level of expressed mRNA in the presence of chemical substance/The level of expressed mRNA in the absence of chemical substance: 2.1
Yeast gene YDL210W
  The level of expressed mRNA in the presence of chemical substance/The level of expressed mRNA in the absence of chemical substance: 2.7
Yeast gene YDL245C
  The level of expressed mRNA in the presence of chemical substance/The level of expressed mRNA in the absence of chemical substance: 1.6
Yeast gene YDR038C
  The level of expressed mRNA in the presence of chemical substance/The level of expressed mRNA in the absence of chemical substance: 3.1
Yeast gene YDR039C
  The level of expressed mRNA in the presence of chemical substance/The level of expressed mRNA in the absence of chemical substance: 3.2
Yeast gene YDR086C
  The level of expressed mRNA in the presence of chemical substance/The level of expressed mRNA in the absence of chemical substance: 1.2
Yeast gene YDR270W
  The level of expressed mRNA in the presence of chemical substance/The level of expressed mRNA in the absence of chemical substance: 1.4
Yeast gene YDR298C
  The level of expressed mRNA in the presence of chemical substance/The level of expressed mRNA in the absence of chemical substance: 2.6
Yeast gene YDR342C
  The level of expressed mRNA in the presence of chemical substance/The level of expressed mRNA in the absence of chemical substance: 12.2
Yeast gene YDR343C
  The level of expressed mRNA in the presence of chemical substance/The level of expressed mRNA in the absence of chemical substance: 20.6
Yeast gene YDR345C
  The level of expressed mRNA in the presence of chemical substance/The level of expressed mRNA in the absence of chemical substance: 5.6
Yeast gene YDR387C
  The level of expressed mRNA in the presence of chemical substance/The level of expressed mRNA in the absence of chemical substance: 1.2
Yeast gene YDR497C
  The level of expressed mRNA in the presence of chemical substance/The level of expressed mRNA in the absence of chemical substance: 0.6
Yeast gene YEL027W
  The level of expressed mRNA in the presence of chemical substance/The level of expressed mRNA in the absence of chemical substance: 3.4
Yeast gene YEL063C
  The level of expressed mRNA in the presence of chemical substance/The level of expressed mRNA in the absence of chemical substance: 2.4
Yeast gene YEL065W
  The level of expressed mRNA in the presence of chemical substance/The level of expressed mRNA in the absence of chemical substance: 1.2
Yeast gene YER053C
  The level of expressed mRNA in the presence of chemical substance/The level of expressed mRNA in the absence of chemical substance: 1.9
Yeast gene YFL011W
  The level of expressed mRNA in the presence of chemical substance/The level of expressed mRNA in the absence of chemical substance: 3.7
Yeast gene YFL041W
  The level of expressed mRNA in the presence of chemical substance/The level of expressed mRNA in the absence of chemical substance: 1.4
Yeast gene YFL050C
  The level of expressed mRNA in the presence of chemical substance/The level of expressed mRNA in the absence of chemical substance: 1.1
Yeast gene YFL054C
  The level of expressed mRNA in the presence of chemical substance/The level of expressed mRNA in the absence of chemical substance: 1.4
Yeast gene YGL006W
  The level of expressed mRNA in the presence of chemical substance/The level of expressed mRNA in the absence of chemical substance: 1.3
Yeast gene YGL008C
  The level of expressed mRNA in the presence of chemical substance/The level of expressed mRNA in the absence of chemical substance: 3.1
Yeast gene YGL104C
  The level of expressed mRNA in the presence of chemical substance/The level of expressed mRNA in the absence of chemical substance: 2.1
Yeast gene YGL167C
  The level of expressed mRNA in the presence of chemical substance/The level of expressed mRNA in the absence of chemical substance: 1.6
Yeast gene YGL255W
  The level of expressed mRNA in the presence of chemical substance/The level of expressed mRNA in the absence of chemical substance: 0.9
Yeast gene YGR055W
  The level of expressed mRNA in the presence of chemical substance/The level of expressed mRNA in the absence of chemical substance: 12.0
Yeast gene YGR065C
  The level of expressed mRNA in the presence of chemical substance/The level of expressed mRNA in the absence of chemical substance: 2.6
Yeast gene YGR082W
  The level of expressed mRNA in the presence of chemical substance/The level of expressed mRNA in the absence of chemical substance: 2.2
Yeast gene YGR096W
  The level of expressed mRNA in the presence of chemical substance/The level of expressed mRNA in the absence of chemical substance: 1.1
Yeast gene YGR138C
  The level of expressed mRNA in the presence of chemical substance/The level of expressed mRNA in the absence of chemical substance: 1.0
Yeast gene YGR191W
  The level of expressed mRNA in the presence of chemical substance/The level of expressed mRNA in the absence of chemical substance: 1.6
Yeast gene YGR197C
  The level of expressed mRNA in the presence of chemical substance/The level of expressed mRNA in the absence of chemical substance: 2.5
